Results from ChEMBL document CHEMBL4145538, “Recent progress in the structural modification and pharmacological activities of ligustrazine derivatives” (Eur J Med Chem, 2018).
Converted amounts (≈) assume the structure as drawn.

Tests used:
[1] = Half life in Sprague-Dawley rat at 20 mg/kg, iv; type: ADME, organism-based; conditions: in vivo
[2] = test system: ECV-304; assay: Protection against H2O2-induced damage in human ECV304 cells preincubated for 24 hrs followed by H2O2 addition and measured after 12 hrs by MTT assay; type: functional, cell-based
[3] = test system: HT-29; assay: Antiproliferative activity against human HT-29 cells after 72 hrs by MTT assay; type: functional, cell-based; conditions: HT-29, 72 h
[4] = test system: MDCK; assay: Antiproliferative activity against MDCK cells at 10 uM after 72 hrs by MTT assay relative to control; type: cell-based, Canis lupus familiaris; conditions: dog
[5] = test system: HepG2; assay: Antiproliferative activity against human HepG2 cells at 10 uM after 72 hrs by MTT assay relative to control; type: functional
[6] = test system: HeLa; assay: Antiproliferative activity against human HeLa cells after 72 hrs by MTT assay; type: functional, cell-based
[7] = test system: HepG2; assay: Antiproliferative activity against human HepG2 cells after 72 hrs by MTT assay; type: functional, cell-based; conditions: HepG2, 72 h
[8] = test system: Bel-7402; assay: Antiproliferative activity against human Bel7402 cells after 72 hrs by MTT assay; type: functional, cell-based; conditions: Bel-7402, 72 h
[9] = test system: MCF7; assay: Antiproliferative activity against human MCF7 cells after 72 hrs by MTT assay; type: functional, cell-based; conditions: MCF7, 72 h
[10] = test system: PC-12; assay: Neuroprotection against CoCl2-induced toxicity in rat PC12 cells preincubated for 36 hrs followed by CoCl2 addition measured after 12 hrs by MTT assay; type: functional, cell-based
[11] = test system: Thoracic aorta; assay: Vasodilatory activity in Sprague-Dawley rat thoracic aorta rings assessed as reduction in KCl-induced contraction; type: functional, tissue-based
[12] = test system: Mus musculus; assay: Anti-inflammatory activity in Kunming mouse assessed as inhibition of xylene-induced ear edema at 100 mg/kg, ig administered once daily for 7 days relative to control; type: functional; conditions: po, 168 h
[13] = test system: Platelet; assay: Antiplatelet activity in rabbit platelet rich plasma assessed as inhibition of ADP-induced platelet aggregation by cytometry; type: functional, cell-based; conditions: Oryctolagus cuniculus
[14] = test system: Bel-7402; assay: Antiproliferative activity against human Bel7402 cells; type: functional, cell-based
[15] = test system: HCT-8; assay: Antiproliferative activity against human HCT8 cells; type: functional, cell-based
[16] = test system: A549; assay: Antiproliferative activity against human A549 cells; type: functional, cell-based
[17] = test system: A2780; assay: Antiproliferative activity against human A2780 cells; type: functional, cell-based
[18] = test system: BGC-823; assay: Antiproliferative activity against human BGC823 cells; type: functional, cell-based
[19] = test system: HUVEC; assay: Protection against H2O2-induced damage in HUVEC; type: functional, cell-based; conditions: Homo sapiens
[20] = test system: PC-12; assay: Neuroprotection against CoCl2-induced toxicity in rat PC12 cells; type: functional, cell-based
[21] = test system: HeLa; assay: Antiproliferative activity against human HeLa cells; type: functional, cell-based
[22] = test system: HepG2; assay: Antiproliferative activity against human HepG2 cells; type: functional, cell-based
[23] = test system: MDCK; assay: Antiproliferative activity against MDCK cells; type: cell-based; conditions: Canis lupus familiaris
[24] = test system: HT-29; assay: Antiproliferative activity against human HT-29 cells; type: functional, cell-based
[25] = test system: HUVEC; assay: Potency index, ratio of ligustrazine EC50 to compound EC50 for protection against H2O2-induced damage in HUVEC; type: functional, Homo sapiens
[26] = test system: HUVEC; assay: Protection against H2O2-induced damage in HUVEC preincubated for 0.5 hrs followed by H2O2 addition and measured after 12 hrs; type: functional, cell-based; conditions: Homo sapiens
[27] = test system: Staphylococcus aureus; assay: Antibacterial activity against Staphylococcus aureus; type: functional
[28] = test system: Staphylococcus epidermidis; assay: Antibacterial activity against Staphylococcus epidermidis; type: functional
[29] = test system: ECV-304; assay: Potency index, ratio of ligustrazine EC50 to compound EC50 for protection against H2O2-induced damage in human ECV304 cells; type: functional

Compound: CCOC(=O)/C=C/c1cc(OC)c(OC(=O)c2nc(C)c(C)nc2C)c(OC)c1
- half-life [1]: 3.03 h

Compound: CNC(=N)NC(=O)c1nc(C)c(C)nc1C
- EC50 [2]: 97 µM

Compound: Cc1nc(C)c(COC(=O)[C@]23CC[C@@H](C(C)C)[C@H]2[C@@H]2CC[C@@H]4[C@@]5(C)CC[C@H](O)C(C)(C)[C@@H]5CC[C@@]4(C)[C@]2(C)CC3)nc1C
- IC50 [3]: 5.23 µM
- Activity [4]: 26.5%
- Activity [5]: 99.87%
- IC50 [6]: 4.34 µM
- IC50 [7]: 4.48 µM
- IC50 [8]: 4.19 µM
- IC50 [9]: 4.23 µM

Compound: Cc1nc(C)c(COCc2ccc(OCc3nc(C)c(C)nc3C)cc2)nc1C
- EC50 [10]: 1.66 µM

Compound: Cc1nc(C)c(COc2ccc(COc3ccc(C=O)cc3)cc2)nc1C
- EC50 [11]: 751 µM

Compound: Cc1nc(C)c(COC(=O)c2cc(O)c3c(c2)C(=O)c2cccc(O)c2C3=O)nc1C
- inhibition in vivo at 100 mg/kg [12]: 76.4%

Compound: COc1ccc(C(=O)NCc2nc(C)c(C)nc2C)cc1C(=O)NCc1nc(C)c(C)nc1C
- IC50 [13]: 2790 µM

Compound: COc1cc(COCc2nc(C)c(C)nc2C)ccc1OCc1nc(C)c(C)nc1C
- EC50 [10]: 1.07 µM

Compound: COc1cc(/C=C/C(=O)CC(=O)/C=C/c2ccc(OCc3nc(C)c(C)nc3C)c(OC)c2)ccc1OCc1nc(C)c(C)nc1C
- IC50 [14]: 6.39 µg/mL (≈ 10 µM)
- IC50 [15]: 7.11 µg/mL (≈ 11.2 µM)
- IC50 [16]: 5.89 µg/mL (≈ 9.25 µM)
- IC50 [17]: 5.54 µg/mL (≈ 8.7 µM)
- IC50 [18]: 5.47 µg/mL

Compound: CC(=O)OC(C(=O)NCc1nc(C)c(C)nc1C)c1ccccc1 (configuration not stated)
- EC50 [19]: 70 µM

Compound: COc1cc(C(=O)OCc2nc(C)c(C)nc2C)ccc1OCc1nc(C)c(C)nc1C
- EC50 [20]: 4.25 µM

Compound: Cc1nc(C)c(COC(=O)[C@]23CCC(C)(C)C[C@H]2C2=CC[C@@H]4[C@@]5(C)CC[C@H](OC(=O)[C@@H](N)CCCCN)C(C)(C)[C@@H]5CC[C@@]4(C)[C@]2(C)CC3)nc1C
- IC50 [21]: 2.38 µM
- IC50 [22]: 2.27 µM
- IC50 [23]: 2.31 µM
- IC50 [18]: 2.48 µM
- IC50 [24]: 2.35 µM

Compound: Cc1nc(C)c(CNC(=O)c2ccncc2)nc1C
- EC50 [19]: 37 µM

Compound: Cc1nc(C)c(COC(=O)[C@]23CCC(C)(C)C[C@H]2C2=CC[C@@H]4[C@@]5(C)CC[C@H](O)C(C)(C)[C@@H]5CC[C@@]4(C)[C@]2(C)CC3)nc1C
- IC50 [21]: 8.68 µM
- IC50 [22]: 21.4 µM
- IC50 [24]: > 25 µM

Compound: Cc1nc(C)c(/C=C/c2ccccc2Cl)nc1C
- Ratio EC50 [25]: 30000
- EC50 [26]: 0.0249 µM

Compound: Cc1nc(C)c(COc2ccc(N3CC(CNC(=O)CCl)OC3=O)cc2F)nc1C (configuration not stated)
- MIC [27]: 8 µg/mL (≈ 18.3 µM)
- MIC [28]: 4 µg/mL (≈ 9.16 µM)

Compound: COc1cc(C(=O)c2cccc(N(C)C)c2)ccc1OCc1nc(C)c(C)nc1C
- EC50 [20]: 17.4 µM

Compound: Cc1nc(C)c(C(=O)NC(=N)NCc2cccc(Cl)c2)nc1C
- Ratio EC50 [29]: 10
- EC50 [2]: 59 µM

Compound: Cc1nc(C)c(CCOc2cccc3c2C(=O)c2c(OCCc4nc(C)c(C)nc4C)cc(C(=O)O)cc2C3=O)nc1C
- inhibition in vivo at 100 mg/kg [12]: 17.5%

Compound: Cc1nc(C)c(C(=O)Oc2ccc(CO[N+](=O)[O-])cc2)nc1C
- EC50 [11]: 93 µM

Compound: CCOC(=O)c1ccc(OCc2ccc(OCc3nc(C)c(C)nc3C)cc2)cc1
- EC50 [11]: 751 µM

Compound: Cc1nc(C)c(COCCc2ccc(OCc3nc(C)c(C)nc3C)cc2)nc1C
- EC50 [10]: 2.03 µM

Compound: Cc1nc(C)c(COc2ccc(COC(=O)c3cccnc3)cc2)nc1C
- EC50 [11]: 379 µM

Compound: COc1ccc(/C=C/c2nc(C)c(C)nc2C)c(OC)c1OC
- EC50 [26]: 5.76 µM

Compound: Cc1nc(C)c(C(=O)NC(=N)NCc2ccc(Cl)c(Cl)c2)nc1C
- EC50 [2]: 94 µM

Compound: Cc1nc(C)c(COC(=O)CC[C@@H](C)[C@H]2CC[C@H]3[C@@H]4CC[C@@H]5C[C@H](O)CC[C@]5(C)[C@H]4C[C@H](O)[C@]23C)nc1C
- IC50 [14]: 8.01 µg/mL (≈ 15.2 µM)
- IC50 [15]: 7.43 µg/mL (≈ 14.1 µM)
- IC50 [16]: 6.69 µg/mL (≈ 12.7 µM)
- IC50 [17]: 6.62 µg/mL (≈ 12.6 µM)
- IC50 [18]: 6.66 µg/mL

Compound: COc1cccc(/C=C/c2nc(C)c(C)nc2C)c1O
- EC50 [26]: 28.9 µM

Compound: Cc1nc(C)c(COc2ccc(N3CC(CNC(=O)CCl)OC3=O)cc2)nc1C (configuration not stated)
- MIC [27]: 8 µg/mL (≈ 19.1 µM)
- MIC [28]: 8 µg/mL (≈ 19.1 µM)

Compound: Cc1nc(C)c(CNC(=O)C(O)c2ccccc2)nc1C (configuration not stated)
- EC50 [19]: 55 µM

Compound: COc1ccc(/C=C/C(=O)NCc2nc(C)c(C)nc2C)c(OC)c1OC
- EC50 [20]: 25 µM

Compound: Cc1nc(C)c(COC(=O)[C@]23CCC(C)(C)C[C@H]2C2=CC[C@@H]4[C@@]5(C)CC[C@H](OC(=O)CN)C(C)(C)[C@@H]5CC[C@@]4(C)[C@]2(C)CC3)nc1C
- IC50 [21]: 3.26 µM
- IC50 [22]: 2 µM
- IC50 [23]: 4.88 µM
- IC50 [18]: 3.06 µM
- IC50 [24]: 2.5 µM

Compound: COc1cc(/C=C/C(=O)CC(=O)/C=C/c2ccc(O)c(OC)c2)ccc1O [CURCUMIN]
- IC50 [14]: 6.5 µg/mL (≈ 17.6 µM)
- IC50 [15]: 6.28 µg/mL (≈ 17 µM)
- IC50 [16]: 6.52 µg/mL (≈ 17.7 µM)
- IC50 [17]: 6.52 µg/mL (≈ 17.7 µM)
- IC50 [18]: 6.81 µg/mL

Compound: Cc1nc(C)c(C)nc1C [LIGUSTRAZINE]
- EC50 [19]: 600 µM
- EC50 [2]: 549 µM
- EC50 [11]: 2330 µM
- IC50 [3]: > 20 µM
- EC50 [10]: 64.5 µM
- EC50 [20]: 60 to 64.5 µM
- IC50 [6]: > 20 µM
- IC50 [7]: > 20 µM
- IC50 [8]: > 20 µM
- IC50 [9]: > 20 µM
- EC50 [26]: 788 µM

Compound: COc1ccc(C(=O)NCc2cccnc2)cc1C(=O)NCc1cccnc1 [PICOTAMIDE]
- IC50 [13]: 49900 µM

Compound: O=C(O)c1cc(O)c2c(c1)C(=O)c1cccc(O)c1C2=O [RHEIN]
- inhibition in vivo at 100 mg/kg [12]: 65.5%
